Test results reported in patent EP1247803A2, “Indolinone compounds suitable for modulation of protein kinases” (Sugen, Inc., priority 1996, dated 1998).

Assays:
FLK-1 receptor = target: T1, FLK-1 receptor (Mus musculus, UniProt P35918); experiment: FLK-1 ELISA (kinase activity of the FLK-1 receptor in FLK-1/NIH3T3 cells, VEGF stimulated); assay type: cell-based; set-up: concentration or dose not given beside the values
T1 construct: expressed in transfected cells; host or cells: NIH3T3 C7#3
Procedure, shortened: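 An ELISA using affinity-purified rabbit anti-FLK-1 antiserum on anti-rabbit IgG-coated plates measured VEGF-stimulated FLK-1 kinase activity. NIH3T3 C7#3 cells carrying FLK-1 were serum-starved (0.1% FBS) overnight, then exposed to compound (final 1:200 dilution, 0.5% DMSO) for two hours at 37 °C.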

PDGF-R = PDGF-R (Homo sapiens, UniProt P09619); experiment: PDGF-R ELISA; assay type: cell-based
Text: A PDGF-R ELISA is described in International Patent Publication No. WO 96/40116, published December 19, 1996 by Tang et al.

T1 sequence (P35918 20-1345): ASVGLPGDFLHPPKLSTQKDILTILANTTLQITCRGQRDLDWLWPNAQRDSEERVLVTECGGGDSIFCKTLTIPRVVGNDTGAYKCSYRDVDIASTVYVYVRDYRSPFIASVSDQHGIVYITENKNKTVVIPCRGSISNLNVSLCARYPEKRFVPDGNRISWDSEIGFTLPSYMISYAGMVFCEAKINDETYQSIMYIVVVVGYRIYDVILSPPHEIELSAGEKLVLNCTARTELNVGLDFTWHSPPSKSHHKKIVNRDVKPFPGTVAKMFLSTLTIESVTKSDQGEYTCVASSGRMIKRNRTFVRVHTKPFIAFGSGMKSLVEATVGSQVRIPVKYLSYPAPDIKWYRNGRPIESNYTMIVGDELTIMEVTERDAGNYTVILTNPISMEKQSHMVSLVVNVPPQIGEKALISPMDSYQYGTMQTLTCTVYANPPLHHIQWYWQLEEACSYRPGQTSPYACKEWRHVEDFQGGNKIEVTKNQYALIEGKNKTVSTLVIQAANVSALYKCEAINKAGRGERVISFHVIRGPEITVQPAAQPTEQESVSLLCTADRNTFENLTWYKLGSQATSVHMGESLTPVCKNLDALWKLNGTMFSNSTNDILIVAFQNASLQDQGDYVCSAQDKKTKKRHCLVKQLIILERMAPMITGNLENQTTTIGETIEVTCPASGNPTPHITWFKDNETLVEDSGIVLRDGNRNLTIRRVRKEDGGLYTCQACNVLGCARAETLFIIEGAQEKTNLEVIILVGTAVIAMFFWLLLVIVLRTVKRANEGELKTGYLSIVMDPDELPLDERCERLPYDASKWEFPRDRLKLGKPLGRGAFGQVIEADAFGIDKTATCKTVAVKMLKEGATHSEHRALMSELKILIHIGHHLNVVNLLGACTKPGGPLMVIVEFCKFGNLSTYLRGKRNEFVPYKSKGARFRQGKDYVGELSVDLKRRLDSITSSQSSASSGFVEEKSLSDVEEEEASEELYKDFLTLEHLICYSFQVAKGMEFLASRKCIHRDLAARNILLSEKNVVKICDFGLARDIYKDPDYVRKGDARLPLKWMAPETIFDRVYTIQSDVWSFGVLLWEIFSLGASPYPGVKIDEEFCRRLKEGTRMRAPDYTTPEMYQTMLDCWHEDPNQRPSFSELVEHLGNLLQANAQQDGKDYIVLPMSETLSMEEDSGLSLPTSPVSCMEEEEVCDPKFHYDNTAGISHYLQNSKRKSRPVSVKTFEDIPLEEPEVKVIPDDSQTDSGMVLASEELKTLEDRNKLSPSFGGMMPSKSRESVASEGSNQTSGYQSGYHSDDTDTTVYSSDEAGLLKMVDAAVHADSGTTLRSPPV
PDGF-R, sequence (P09619 33-1106, species assumed): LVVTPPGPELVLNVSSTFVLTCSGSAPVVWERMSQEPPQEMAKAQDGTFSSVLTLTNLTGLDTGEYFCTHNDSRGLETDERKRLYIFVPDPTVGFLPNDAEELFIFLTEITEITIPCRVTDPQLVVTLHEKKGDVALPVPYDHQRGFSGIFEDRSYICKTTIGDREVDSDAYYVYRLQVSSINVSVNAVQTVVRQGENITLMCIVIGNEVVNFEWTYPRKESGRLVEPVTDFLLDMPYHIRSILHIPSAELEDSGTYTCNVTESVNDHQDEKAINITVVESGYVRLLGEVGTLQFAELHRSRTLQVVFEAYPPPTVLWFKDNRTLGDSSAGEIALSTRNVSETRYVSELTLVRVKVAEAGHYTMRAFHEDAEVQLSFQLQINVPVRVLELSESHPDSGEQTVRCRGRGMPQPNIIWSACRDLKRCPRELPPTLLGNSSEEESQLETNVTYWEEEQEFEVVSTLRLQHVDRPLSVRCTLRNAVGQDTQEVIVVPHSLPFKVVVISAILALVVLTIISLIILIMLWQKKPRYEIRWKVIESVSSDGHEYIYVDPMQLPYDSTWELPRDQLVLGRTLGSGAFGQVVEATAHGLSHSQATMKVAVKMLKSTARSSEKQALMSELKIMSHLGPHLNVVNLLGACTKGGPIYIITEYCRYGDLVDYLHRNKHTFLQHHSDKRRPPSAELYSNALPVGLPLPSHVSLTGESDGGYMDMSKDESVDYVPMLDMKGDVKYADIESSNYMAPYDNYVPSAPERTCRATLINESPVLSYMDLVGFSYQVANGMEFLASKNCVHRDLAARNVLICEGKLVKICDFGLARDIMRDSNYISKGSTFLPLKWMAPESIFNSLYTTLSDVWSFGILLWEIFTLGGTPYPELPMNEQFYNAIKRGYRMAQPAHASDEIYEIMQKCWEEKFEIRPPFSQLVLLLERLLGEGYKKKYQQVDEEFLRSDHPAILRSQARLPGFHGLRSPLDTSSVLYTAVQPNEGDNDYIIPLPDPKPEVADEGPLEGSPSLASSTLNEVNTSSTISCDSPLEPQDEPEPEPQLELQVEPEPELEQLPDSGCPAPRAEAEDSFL

Row | SMILES | Fik Kinase %Inhibition (FLK-1 receptor) [%] | PDGF Kinase %Inhibition (PDGF-R) [%]
1 | O=C1Nc2c(Br)cc(Br)cc2C1=Cc1ccc(Br)cc1 [10717/A08] | -5.2 | 
2 | COC(=O)c1[nH]c(C)c(C=C2C(=O)Nc3ccc(I)cc32)c1C(=O)OC [10718/B07] | 17.7 | 
3 | O=C1Nc2ccc(I)cc2C1=Cc1ccc(Cl)c([N+](=O)[O-])c1 [10718/B08] | 5.4 | 
4 | Cc1c(O)ccc(C=C2C(=O)Nc3ccc(I)cc32)c1O [10718/B09] | -14.7 | 
5 | O=C1Nc2ccc(I)cc2C1=Cc1ccco1 [10718/B10] | 20.1 | 
6 | O=C1Nc2ccc(I)cc2C1=Cc1ccc([N+](=O)[O-])o1 [10718/B11] | 4.5 | 
7 | CCOC(=O)c1c(C)[nH]c(C=C2C(=O)Nc3ccc(Br)c(C)c32)c1C [10718/C02] | 26.2 | 
8 | COc1cc(Br)c(O)c(C=C2C(=O)Nc3ccc(Br)c(C)c32)c1 [10718/C03] | -13.9 | 
9 | Cc1c(Br)ccc2c1C(=Cc1ccc3ccccc3c1O)C(=O)N2 [10718/C04] | 15.3 | 
10 | O=C1Nc2ccc(S(=O)(=O)Nc3ccc(C(F)(F)F)cc3)cc2C1=Cc1cccnc1 [10729/E08] | 10.9 | 11.0
11 | O=C1Nc2ccc(S(=O)(=O)Nc3ccc(C(F)(F)F)cc3)cc2C1=Cc1ccncc1 [10729/E09] | 6.9 | -11.7
12 | O=C1Nc2ccc(S(=O)(=O)Nc3ccc(C(F)(F)F)cc3)cc2C1=Cc1ccc(N2CCCC2)cc1 [10729/E10] | 5.7 | 11.8
13 | O=C1Nc2ccc(S(=O)(=O)Nc3ccc(C(F)(F)F)cc3)cc2C1=CC1C=CCCC1 (centres unmarked) [10729/E11] | 70.9 | 22.4
14 | COc1ccc2ccccc2c1C=C1C(=O)Nc2ccc(CCCl)cc21 [10729/G02] | 18.8 | 16.7
15 | COc1ccc(C=C2C(=O)Nc3ccc(CCCl)cc32)c2ccccc12 [10729/G03] | 10.4 | 13.7
16 | CSc1ccc(C=C2C(=O)Nc3ccc(CCCl)cc32)cc1 [10729/G04] | 12.2 | 1.6
17 | Cc1ccsc1C=C1C(=O)Nc2ccc(CCCl)cc21 [10729/G05] | 8.7 | 9.9
18 | O=C1Nc2ccc(CCCl)cc2C1=Cc1cccc(Oc2ccccc2)c1 [10729/G06] | 10.9 | 11.8
19 | O=C1Nc2ccc(CCCl)cc2C1=Cc1ccccn1 [10729/G07] | -2.5 | 14.4
20 | O=C1Nc2ccc(CCCl)cc2C1=Cc1cccnc1 [10729/G08] | -1.0 | 0.8
21 | O=C1Nc2ccc(CCCl)cc2C1=Cc1ccncc1 [10729/G09] | -3.3 | 1.9
22 | O=C1Nc2ccc(CCCl)cc2C1=Cc1ccc(N2CCCC2)cc1 [10729/G10] | -9.1 | -13.2

Row | SMILES | Fik Kinase %Inhibition (FLK-1 receptor) [%] | PDGF Kinase %Inhibition (PDGF-R) [%]
23 | O=C1Nc2ccc(CCCl)cc2C1=CC1C=CCCC1 (centres unmarked) [10729/G11] | -0.5 | 3.8
24 | COc1ccc(C=C2C(=O)Nc3c(Br)cc(Br)cc32)c(OC)c1OC [10730/A02] | -3.7 | -23.1
25 | COc1cc(OC)c(OC)cc1C=C1C(=O)Nc2c(Br)cc(Br)cc21 [10730/A03] | -3.2 | -11.2
26 | COc1cc(C=C2C(=O)Nc3c(Br)cc(Br)cc32)cc(OC)c1OC [10730/A04] | -9.9 | -5.1
27 | CC(=O)n1cc(C=C2C(=O)Nc3c(Br)cc(Br)cc32)c2ccccc21 [10730/A05] | -10.8 | 2.8
28 | O=C1Nc2c(Br)cc(Br)cc2C1=Cc1coc2ccc(Cl)cc2c1=O [10730/A06] | -7.0 | 6.3
29 | O=C1Nc2c(Br)cc(Br)cc2C1=Cc1ccc(-c2ccccc2Cl)o1 [10730/A07] | -18.9 | -23.9
30 | O=C1Nc2c(Br)cc(Br)cc2C1=Cc1cc2ccccc2nc1Cl [10730/A08] | -2.9 | -6.0
31 | O=C1Nc2c(Br)cc(Br)cc2C1=Cc1coc2c(Br)cc(Br)cc2c1=O [10730/A09] | 1.9 | -4.7
32 | COC1CC(C=C2C(=O)Nc3c(Br)cc(Br)cc32)C(OC)O1 (centres unmarked) [10730/A10] | 0.5 | 1.0
33 | Cc1cc(C=C2C(=O)Nc3c(Br)cc(Br)cc32)oc1C [10730/A11] | 6.8 | -6.4
34 | COc1ccc(C=C2C(=O)Nc3ccc(I)cc32)c(OC)c1OC [10730/B02] | 5.0 | 5.4
35 | COc1cc(OC)c(OC)cc1C=C1C(=O)Nc2ccc(I)cc21 [10730/B03] | -0.5 | 17.3
36 | COc1cc(C=C2C(=O)Nc3ccc(I)cc32)cc(OC)c1OC [10730/B04] | 12.8 | 7.2
37 | CC(=O)n1cc(C=C2C(=O)Nc3ccc(I)cc32)c2ccccc21 [10730/B05] | -0.5 | -2.9
38 | O=C1Nc2ccc(I)cc2C1=Cc1coc2ccc(Cl)cc2c1=O [10730/B06] | 2.4 | 7.6
39 | O=C1Nc2ccc(I)cc2C1=Cc1ccc(-c2ccccc2Cl)o1 [10730/B07] | 0.6 | 2.4
40 | O=C1Nc2ccc(I)cc2C1=Cc1cc2ccccc2nc1Cl [10730/B08] | 4.4 | 0.2
41 | O=C1Nc2ccc(I)cc2C1=Cc1coc2c(Br)cc(Br)cc2c1=O [10730/B09] | 9.4 | 15.1
42 | COC1CC(C=C2C(=O)Nc3ccc(I)cc32)C(OC)O1 (centres unmarked) [10730/B10] | 15.2 | 19.0
43 | Cc1cc(C=C2C(=O)Nc3ccc(I)cc32)oc1C [10730/B11] | 1.9 | -13.9
44 | COc1ccc(C=C2C(=O)Nc3ccc(Br)c(C)c32)c(OC)c1OC [10730/C02] | 48.8 | 26.5

Row | SMILES | Fik Kinase %Inhibition (FLK-1 receptor) [%] | PDGF Kinase %Inhibition (PDGF-R) [%]
45 | COc1cc(OC)c(OC)cc1C=C1C(=O)Nc2ccc(Br)c(C)c21 [10730/C03] | 25.5 | 36.5
46 | COc1cc(C=C2C(=O)Nc3ccc(Br)c(C)c32)cc(OC)c1OC [10730/C04] | 46.1 | 15.5
47 | CC(=O)n1cc(C=C2C(=O)Nc3ccc(Br)c(C)c32)c2ccccc21 [10730/C05] | 11.4 | 8.5
48 | Cc1c(Br)ccc2c1C(=Cc1coc3ccc(Cl)cc3c1=O)C(=O)N2 [10730/C06] | 5.3 | 7.6
49 | Cc1c(Br)ccc2c1C(=Cc1ccc(-c3ccccc3Cl)o1)C(=O)N2 [10730/C07] | 7.3 | 1.0
50 | Cc1c(Br)ccc2c1C(=Cc1cc3ccccc3nc1Cl)C(=O)N2 [10730/C08] | -2.3 | 8.5
51 | Cc1c(Br)ccc2c1C(=Cc1coc3c(Br)cc(Br)cc3c1=O)C(=O)N2 [10730/C09] | 14.0 | 18.1
52 | COC1CC(C=C2C(=O)Nc3ccc(Br)c(C)c32)C(OC)O1 (centres unmarked) [10730/C10] | 15.4 | 44.4
53 | Cc1cc(C=C2C(=O)Nc3ccc(Br)c(C)c32)oc1C [10730/C11] | -8.0 | 16.4
54 | CNS(=O)(=O)c1ccc2c(c1)C(=Cc1ccc(OC)c(OC)c1OC)C(=O)N2 [10730/D02] | 12.4 | 24.3
55 | CNS(=O)(=O)c1ccc2c(c1)C(=Cc1cc(OC)c(OC)cc1OC)C(=O)N2 [10730/D03] | 8.4 | 19.0
56 | CNS(=O)(=O)c1ccc2c(c1)C(=Cc1cc(OC)c(OC)c(OC)c1)C(=O)N2 [10730/D04] | 9.1 | 20.8
57 | CNS(=O)(=O)c1ccc2c(c1)C(=Cc1cn(C(C)=O)c3ccccc13)C(=O)N2 [10730/D05] | 11.9 | -1.6
58 | CNS(=O)(=O)c1ccc2c(c1)C(=Cc1coc3ccc(Cl)cc3c1=O)C(=O)N2 [10730/D06] | 5.8 | -2.0
59 | CNS(=O)(=O)c1ccc2c(c1)C(=Cc1ccc(-c3ccccc3Cl)o1)C(=O)N2 [10730/D07] | 8.8 | 5.0
60 | CNS(=O)(=O)c1ccc2c(c1)C(=Cc1cc3ccccc3nc1Cl)C(=O)N2 [10730/D08] | 8.6 | 12.9
61 | CNS(=O)(=O)c1ccc2c(c1)C(=Cc1coc3c(Br)cc(Br)cc3c1=O)C(=O)N2 [10730/D09] | 9.8 | -1.6
62 | CNS(=O)(=O)c1ccc2c(c1)C(=CC1CC(OC)OC1OC)C(=O)N2 (centres unmarked) [10730/D10] | -15.3 | -3.3
63 | CNS(=O)(=O)c1ccc2c(c1)C(=Cc1cc(C)c(C)o1)C(=O)N2 [10730/D11] | 7.7 | -0.7
64 | COc1ccc(C=C2C(=O)Nc3ccc(S(=O)(=O)Nc4ccc(C(F)(F)F)cc4)cc32)c(OC)c1OC [10730/E02] | 24.8 | 16.4
